Assay results published in patent publication US9365633B2, “Peptide preparations and peptides with antitumour activity” (Instytut Medycyny Doswiadczalnej I Klinicznej Pan, priority 2010, dated 2016).

Test system: melanoma cells of the line MeW 155
Experiment: Effect of synthetic peptides on proliferation of melanoma cells, 3 day culture in 96-well plate
Type: cell-based
Settings: 3 days of culture; for cell numbers, % of the control: 4000 cells per well; for toxicity to MeW 155 melanoma cells: MeW 155, 0.1 mM
Experimental: The synthetic peptides were examined for their effect on the proliferation of melanoma cells of the line MeW 155. The culture was maintained under standard conditions for 3 days with 4000 cells per well of a 96-well culture plate. After three days, the numbers of cells in the control group increased to 120 000. It turned out that after 3 days of culture, peptide 91 at a concentration of 0.004 mM decreased cell numbers to 55% of the control, and a 0.02 mM concentration decreased the cells to 35%, whereas 0.1 mM was toxic to MeW 155 cells. Peptide 92 at 0.004 mM decreased the number of tumour cells to 65% of the control, a 0.02 mMol concentration decreased the number of cells to 49%, and a concentration of 0.1 mM was toxic to melanoma cells.

With YRPWGSGSGF [compound 92] the “cell numbers, % of the control” value (MeW 155, 0.004 mM) was 65%, the “cell numbers, % of the control” value (MeW 155, 0.02 mM) was 49% and the “toxicity to MeW 155 melanoma cells” value was “toxic”.

YRPWGSGSGFG [peptide 91] was tested, and the “cell numbers, % of the control” value (MeW 155, 0.004 mM) was 55%, the “cell numbers, % of the control” value (MeW 155, 0.02 mM) was 35% and the “toxicity to MeW 155 melanoma cells” value was “toxic”.
